Our source for the IC50 values is patent US11780823B2, “Indazole-3-carboxamides and their use as Wnt/β-catenin signaling pathway inhibitors” (BioSplice Therapeutics, Inc., priority 2011, dated 2023).

The test system of the experiment is Wnt activity (wnt-responsive SP5 promoter luciferase reporter in SW480 cells). In words: Wnt reporter screening assay: SP5 promoter-driven firefly luciferase in SW480 cells. Type of experiment: cell-based. The note with it: Homo sapiens; SW480 colon cancer cells with SP5 promoter luciferase reporter; half-log dilutions, ten micromolar top concentration; read 24-40 h after compound addition; normalized to DMSO; read-out: Wnt inhibition. The source says:
Another screening assay for Wnt activity is described as follows. Reporter cell lines can be generated by stably transducing cells of cancer cell lines (e.g., colon cancer) with a lentiviral construct that include a wnt-responsive promoter driving expression of the firefly luciferase gene.
Lentiviral constructs can be made in which the SP5 promoter, a promoter having eight TCF/LEF binding sites derived from the SP5 promoter, is linked upstream of the firefly luciferase gene. The lentiviral constructs can also include a hygromycin resistance gene as a selectable marker. The SP5 promoter construct can be used to transduce SW480 cells, a colon cancer cell line having a mutated APC gene that generates a truncated APC protein, leading to de-regulated accumulation of β-catenin.
Cultured SW480 cells bearing a reporter construct can be distributed at approximately 10,000 cells per well into 96 well or 384 well plates. Compounds from a small molecule compound library can then be added to the wells in half-log dilutions using a ten micromolar top concentration. A series of control wells for each cell type receive only buffer and compound solvent. Twenty-four to forty hours after the addition of compound, reporter activity for luciferase can be assayed, for example, by addition of the BrightGlo luminescence reagent (Promega) and the Victor3 plate reader (Perkin Elmer). Readings can be normalized to DMSO only treated cells, and normalized activities can then be used in the IC50 calculations.
As for `CN1CCN(c2ccc(NC(=O)c3n[nH]c4ccc(-c5cncc(CN6CCCCC6)c5)cc34)cn2)CC1` [Compound 70, N-(6-(4-Methylpiperazin-1-yl)pyridin-3-yl)-5-(5-(piperidin-1-ylmethyl)pyridin-3-yl)-1H-indazole-3-carboxamide], the IC50 worked out at 0.041 µM.

For `O=C(Nc1ccc(N2CCCC2)nc1)c1n[nH]c2ccc(-c3cncc(CN4CCC(O)CC4)c3)cc12` [Compound 170, 5-(5-((4-Hydroxypiperidin-1-yl)methyl)pyridin-3-yl)-N-(6-(pyrrolidin-1-yl)pyridin-3-yl)-1H-indazole-3-carboxamide], the IC50 was determined as 0.043 µM. The same measure for `O=C(Nc1ccc(N2CCOCC2)nc1)c1n[nH]c2ccc(-c3cncc(CN4CCCCC4)c3)cc12` [Compound 69, N-(6-Morpholinopyridin-3-yl)-5-(5-(piperidin-1-ylmethyl)pyridin-3-yl)-1H-indazole-3-carboxamide]: 0.05 µM; for `O=C(Nc1cnccc1NC(=O)C1CC1)c1n[nH]c2ccc(-c3cccnc3)cc12` [Compound 58, N-(4-(Cyclopropanecarboxamido)pyridin-3-yl)-5-(pyridin-3-yl)-1H-indazole-3-carboxamide]: 0.071 µM; for `Cc1cc(NC(=O)c2n[nH]c3ccc(-c4cncc(CN5CCCCC5)c4)cc23)cnc1N1CCC1` [Compound 173, N-(6-(Azetidin-1-yl)-5-methylpyridin-3-yl)-5-(5-(piperidin-1-ylmethyl)pyridin-3-yl)-1H-indazole-3-carboxamide]: 0.036 µM.

`O=C(Nc1cccnc1)c1n[nH]c2ccc(-c3cncc(NC(=O)N4CCOCC4)c3)cc12` [Compound 32, N-(5-(3-(Pyridin-3-ylcarbamoyl)-1H-indazol-5-yl)pyridin-3-yl) morpholine-4-carboxamide]: the IC50 stood at 1.25 µM.

Take `O=C(NCc1cccnc1)c1n[nH]c2ccc(-c3cccnc3)cc12` [Compound 42, 5-(Pyridin-3-yl)-N-(pyridin-3-ylmethyl)-1H-indazole-3-carboxamide]: the IC50 was 0.5 µM. The figure for `CN1CCN(Cc2cncc(-c3ccc4[nH]nc(C(=O)Nc5cccnc5)c4c3)c2)CC1` [Compound 61, 5-(5-((4-Methylpiperazin-1-yl)methyl)pyridin-3-yl)-N-(pyridin-3-yl)-1H-indazole-3-carboxamide] is 0.239 µM; for `O=C(Nc1cccnc1)c1n[nH]c2ccc(-c3cncc(NC(=O)C4CC4)c3)cc12` [Compound 41, 5-(5-(Cyclopropanecarboxamido)pyridin-3-yl)-N-(pyridin-3-yl)-1H-indazole-3-carboxamide] it is 0.067 µM.

Regarding `O=C(Nc1cccnc1)c1n[nH]c2ccc(-c3cncc(Cc4ccccc4)c3)cc12` [Compound 55, 5-(5-Benzylpyridin-3-yl)-N-(pyridin-3-yl)-1H-indazole-3-carboxamide], the IC50 is 0.044 µM. The figure for `O=C(Nc1ccc(-c2ccccc2)nc1)c1n[nH]c2ccc(-c3cncc(CN4CCCC4)c3)cc12` [Compound 50, N-(6-Phenylpyridin-3-yl)-5-(5-(pyrrolidin-1-ylmethyl)pyridin-3-yl)-1H-indazole-3-carboxamide] is 0.071 µM; for `O=C(Nc1ccc(C(F)(F)F)nc1)c1n[nH]c2ccc(-c3cncc(CN4CCOCC4)c3)cc12` [Compound 68, 5-(5-(Morpholinomethyl)pyridin-3-yl)-N-(6-(trifluoromethyl)pyridin-3-yl)-1H-indazole-3-carboxamide] it is 0.048 µM.

On to `CN(C)Cc1cncc(-c2ccc3[nH]nc(C(=O)Nc4ccc(N5CCCC5)nc4)c3c2)c1` [Compound 190, 5-(5-((Dimethylamino)methyl)pyridin-3-yl)-N-(6-(pyrrolidin-1-yl)pyridin-3-yl)-1H-indazole-3-carboxamide], for which the IC50 was 1.2 µM. The figure for `O=C(Nc1ccc2c(c1)OCCO2)c1n[nH]c2ccc(-c3cncc(CN4CCCCC4)c3)cc12` [Compound 79, N-(2,3-Dihydrobenzo[b][1,4]dioxin-6-yl)-5-(5-(piperidin-1-ylmethyl)pyridin-3-yl)-1H-indazole-3-carboxamide] is 0.123 µM. With `O=C(Nc1cnccc1C(F)(F)F)c1n[nH]c2ccc(-c3cccnc3)cc12` [Compound 48, 5-(Pyridin-3-yl)-N-(4-(trifluoromethyl)pyridin-3-yl)-1H-indazole-3-carboxamide], the IC50 was no less than 10 µM. The figure for `O=C(Nc1ccnnc1)c1n[nH]c2ccc(-c3cccnc3)cc12` [Compound 14, N-(Pyridazin-4-yl)-5-(pyridin-3-yl)-1H-indazole-3-carboxamide] is 0.106 µM; for `O=C(Nc1ccc(N2CCCCC2)nc1)c1n[nH]c2ccc(-c3cncc(CN4CCCCC4)c3)cc12` [Compound 126, N-(6-(Piperidin-1-yl)pyridin-3-yl)-5-(5-(piperidin-1-ylmethyl)pyridin-3-yl)-1H-indazole-3-carboxamide] it is 0.022 µM; for `O=C(NC1CCCCC1)c1cncc(-c2ccc3[nH]nc(C(=O)Nc4cccnc4)c3c2)c1` [Compound 59, 5-(5-(Cyclohexylcarbamoyl)pyridin-3-yl)-N-(pyridin-3-yl)-1H-indazole-3-carboxamide] it is 3.1 µM. On to `CN(C)CCN(C)c1ccc(NC(=O)c2n[nH]c3ccc(-c4cncc(CN5CCCCC5)c4)cc23)cn1` [Compound 74, N-(6-((2-(Dimethylamino)ethyl)(methyl)amino)pyridin-3-yl)-5-(5-(piperidin-1-ylmethyl)pyridin-3-yl)-1H-indazole-3-carboxamide], for which the IC50 turned out to be 0.065 µM. Take `CN1CCC(NC(=O)c2n[nH]c3ccc(-c4cncc(CN5CCCCC5)c4)cc23)CC1` [Compound 87, N-(1-Methylpiperidin-4-yl)-5-(5-(piperidin-1-ylmethyl)pyridin-3-yl)-1H-indazole-3-carboxamide]: the IC50 came to 2.44 µM.

`CN1CCN(Cc2cncc(NC(=O)c3n[nH]c4ccc(-c5cncc(CN6CCCCC6)c5)cc34)c2)CC1` [Compound 124, N-(5-((4-Methylpiperazin-1-yl)methyl)pyridin-3-yl)-5-(5-(piperidin-1-ylmethyl)pyridin-3-yl)-1H-indazole-3-carboxamide]: the IC50 was 0.067 µM. As for `CN1CCN(c2ccc(NC(=O)c3n[nH]c4ccc(-c5cccnc5)cc34)cn2)CC1` [Compound 12, N-(6-(4-Methylpiperazin-1-yl)pyridin-3-yl)-5-(pyridin-3-yl)-1H-indazole-3-carboxamide], the IC50 was 0.063 µM. The figure for `O=C(Nc1ccc(N2CCCC2)nc1)c1n[nH]c2ccc(-c3cncc(N4CCOCC4)c3)cc12` [Compound 187, 5-(5-Morpholinopyridin-3-yl)-N-(6-(pyrrolidin-1-yl)pyridin-3-yl)-1H-indazole-3-carboxamide] is 0.215 µM; for `NC(=O)c1ccc(NC(=O)c2n[nH]c3ccc(-c4cncc(CN5CCCCC5)c4)cc23)cn1` [Compound 180, N-(6-carbamoylpyridin-3-yl)-5-(5-(piperidin-1-ylmethyl)pyridin-3-yl)-1H-indazole-3-carboxamide] it is 0.013 µM. `O=C(Nc1ccc(N2CCCC2)nc1)c1n[nH]c2ccc(-c3cncc(CN4CCCCC4)c3)cc12` [Compound 71, 5-(5-(Piperidin-1-ylmethyl)pyridin-3-yl)-N-(6-(pyrrolidin-1-yl)pyridin-3-yl)-1H-indazole-3-carboxamide]: the IC50 was 0.025 µM. The figure for `O=C(Nc1ccc(N2CCC2)nc1)c1n[nH]c2ccc(-c3cncc(CN4CCCCC4)c3)cc12` [Compound 174, N-(6-(Azetidin-1-yl)pyridin-3-yl)-5-(5-(piperidin-1-ylmethyl)pyridin-3-yl)-1H-indazole-3-carboxamide] is 0.048 µM; for `O=C(Nc1ccnnc1)c1n[nH]c2ccc(-c3cncc(CN4CCCCC4)c3)cc12` [Compound 75, 5-(5-(Piperidin-1-ylmethyl)pyridin-3-yl)-N-(pyridazin-4-yl)-1H-indazole-3-carboxamide] it is 0.04 µM.

As for `O=C(Nc1cccnc1)c1n[nH]c2ccc(-c3cccc(CN4CCCC4)c3)cc12` [Compound 49, N-(Pyridin-3-yl)-5-(3-(pyrrolidin-1-ylmethyl)phenyl)-1H-indazole-3-carboxamide], the IC50 is 0.057 µM. Turning to `C[C@@H]1CCC[C@H](C)N1Cc1cncc(-c2ccc3[nH]nc(C(=O)Nc4cccnc4)c3c2)c1` [Compound 84, 5-(5-(((2R,6S)-2,6-Dimethylpiperidin-1-yl)methyl)pyridin-3-yl)-N-(pyridin-3-yl)-1H-indazole-3-carboxamide], the IC50 lay within 0.822 to 0.898 µM. The same measure for `O=C(Nc1ccc(C(F)(F)F)nc1)c1n[nH]c2ccc(-c3cncc(NC(=O)C4CC4)c3)cc12` [Compound 39, 5-(5-(Cyclopropanecarboxamido)pyridin-3-yl)-N-(6-(trifluoromethyl)pyridin-3-yl)-1H-indazole-3-carboxamide]: 0.065 µM; for `O=C(Nc1cccc(F)c1)c1n[nH]c2ccc(-c3cncc(CN4CCCCC4)c3)cc12` [Compound 162, N-(3-Fluorophenyl)-5-(5-(piperidin-1-ylmethyl)pyridin-3-yl)-1H-indazole-3-carboxamide]: 0.426 µM. The figure for `O=C(Nc1cccnc1)c1n[nH]c2ccc(-c3cncc(N4CCCC4)c3)cc12` [Compound 189, N-(Pyridin-3-yl)-5-(5-(pyrrolidin-1-yl)pyridin-3-yl)-1H-indazole-3-carboxamide] is 0.085 µM.
